Test results reported in the supplement of paper PMC13380429.

What was measured:
Conditions in all cases: 72 h
Caco-2 [1] = assay: cell viability relative to DMSO; higher = less toxic
Calu-3 [2] = assay: as above
U2OS [3] = assay: as above
Vero E6 [4] = assay: as above
Caco-2 [5] = assay: relative viability EC50 (midpoint between 100% and the lowest measured viability); higher = less toxic
Calu-3 [6] = assay: as above
U2OS [7] = assay: as above
Vero E6 [8] = assay: as above
Caco-2 [9] = assay: drug sensitivity score (DSS) for viability; higher = more toxic; extreme values may be limits of the assay
Calu-3 [10] = assay: as above
U2OS [11] = assay: as above
Vero E6 [12] = assay: as above
HepG2 [13] = assay: cell viability relative to DMSO; higher = less toxic
HepG2 [14] = assay: drug sensitivity score (DSS) for viability; higher = more toxic; extreme values may be limits of the assay

| SMILES | cell viability (Caco-2 [1]; 1 nM) [%] | cell viability (Caco-2 [1]; 10 nM) [%] | cell viability (Caco-2 [1]; 100 nM) [%] | cell viability (Caco-2 [1]; 1000 nM) [%] | cell viability (Caco-2 [1]; 10000 nM) [%] | cell viability (Calu-3 [2]; 1 nM) [%] | cell viability (Calu-3 [2]; 10 nM) [%] | cell viability (Calu-3 [2]; 100 nM) [%] | cell viability (Calu-3 [2]; 1000 nM) [%] | cell viability (Calu-3 [2]; 10000 nM) [%] | cell viability (U2OS [3]; 1 nM) [%] | cell viability (U2OS [3]; 10 nM) [%] | cell viability (U2OS [3]; 100 nM) [%] | cell viability (U2OS [3]; 1000 nM) [%] | cell viability (U2OS [3]; 10000 nM) [%] | cell viability (Vero E6 [4]; 1 nM) [%] | cell viability (Vero E6 [4]; 10 nM) [%] | cell viability (Vero E6 [4]; 100 nM) [%] | cell viability (Vero E6 [4]; 1000 nM) [%] | cell viability (Vero E6 [4]; 10000 nM) [%] | relative viability EC50 (Caco-2 [5]) [µM] | relative viability EC50 (Calu-3 [6]) [µM] | relative viability EC50 (U2OS [7]) [µM] | relative viability EC50 (Vero E6 [8]) [µM] | drug sensitivity score (Caco-2 [9]) | drug sensitivity score (Calu-3 [10]) | drug sensitivity score (U2OS [11]) | drug sensitivity score (Vero E6 [12]) | cell viability (HepG2 [13]; 1 nM) [%] | cell viability (HepG2 [13]; 10 nM) [%] | cell viability (HepG2 [13]; 100 nM) [%] | cell viability (HepG2 [13]; 1000 nM) [%] | cell viability (HepG2 [13]; 10000 nM) [%] | drug sensitivity score (HepG2 [14]) |
| --- | --- | --- | --- | --- | --- | --- | --- | --- | --- | --- | --- | --- | --- | --- | --- | --- | --- | --- | --- | --- | --- | --- | --- | --- | --- | --- | --- | --- | --- | --- | --- | --- | --- | --- |
| CN1CCN(c2c(F)cc3c(=O)c(C(=O)O)cn(CCF)c3c2F)CC1 [fleroxacin] | 102 | 97.2 | 100 | 96.8 | 107 | 88 | 106 | 102 | 108 | 107 | 96.5 | 93.6 | 104 | 97.1 | 102 | 102 | 105 | 97.6 | 101 | 98.1 | > 10 | > 10 | > 10 | > 10 | 0 | 0 | 0 | 0 | – | – | – | – | – | – |
| CC(C)(C)NCC(O)c1cc(Cl)c(N)c(C(F)(F)F)c1 (configuration not stated) [mabuterol] | 87.6 | 110 | 99.1 | 112 | 85.7 | 102 | 97 | 99.6 | 92.8 | 98.2 | 97.2 | 93.6 | 98.8 | 97.7 | 93.3 | 89.1 | 92 | 92.4 | 91.6 | 104 | > 10 | > 10 | > 10 | > 10 | 0.1 | 0 | 0 | 0 | – | – | – | – | – | – |
| COc1ccccc1OC(=O)C(C)c1ccc(CC(C)C)cc1 (configuration not stated) [metoxibutropate] | 95.5 | 104 | 90.2 | 93.1 | 96.7 | 118 | 105 | 104 | 97.7 | 107 | 101 | 103 | 97.8 | 99.3 | 100 | 99.2 | 102 | 96.9 | 98.7 | 100 | > 10 | > 10 | > 10 | > 10 | 0 | 0 | 0 | 0 | – | – | – | – | – | – |
| C=CC(=O)N1CCC(Oc2cc3c(Nc4ccc(Cl)c(Cl)c4F)ncnc3cc2OC)CC1 [poziotinib] | 88.4 | 86.5 | 80.9 | 85.2 | 60.1 | 67.5 | 31.5 | 30 | 27.4 | 18.5 | 95.1 | 94.4 | 91.1 | 88 | 19.3 | 86.4 | 60.5 | 58.3 | 45.6 | 8.8 | – | 0.0016 | 2 | 0.0784 | 6.4 | 34.8 | 6.5 | 21.1 | 105 | 97.3 | 101 | 93.9 | 63.3 | 2.8 |
| C[C@@]12CCc3occc3[C@H]1CC[C@@]13C[C@@H](CC[C@H]12)[C@@](O)(CO)C3 [cafestol] | 119 | 100 | 104 | 103 | 79.6 | 104 | 104 | 107 | 112 | 98.2 | 101 | 103 | 94.2 | 98.2 | 94.4 | 98.7 | 97.7 | 102 | 98 | 104 | > 10 | > 10 | > 10 | > 10 | 0.5 | 0 | 0 | 0 | 83.8 | 96.4 | 78.4 | 104 | 69.3 | 1.1 |
| CC(=O)CC(=O)O [lithium-acetoacetate] | 94 | 104 | 101 | 109 | 99.3 | 98.2 | 101 | 98.9 | 99 | 100 | 98.6 | 101 | 98.1 | 102 | 96.8 | 103 | 104 | 103 | 97.7 | 105 | > 10 | > 10 | > 10 | > 10 | 0 | 0 | 0 | 0 | – | – | – | – | – | – |
| CN(C(=O)c1c(O)c2ccccc2n(C)c1=O)c1ccccc1 [roquinimex] | 88.7 | 95.5 | 82.2 | 92.5 | 99.5 | 85.8 | 96.1 | 96 | 95.4 | 108 | 96.5 | 101 | 94.1 | 93.8 | 101 | 103 | 93.6 | 98.2 | 97.1 | 105 | > 10 | > 10 | > 10 | > 10 | 0 | 0 | 0 | 0 | – | – | – | – | – | – |
| Cn1c([N+](=O)[O-])cnc1COC(N)=O [ronidazole] | 89.2 | 93.5 | 107 | 95.2 | 101 | 95.6 | 98.6 | 95.3 | 92 | 103 | 96.4 | 97.9 | 99.8 | 97.9 | 99.5 | 98 | 103 | 93.7 | 98.7 | 108 | > 10 | > 10 | > 10 | > 10 | 0 | 0 | 0 | 0 | – | – | – | – | – | – |
| N=C(N)c1ccc(/C=C/c2ccc(C(=N)N)cc2O)cc1 [hydroxystilbamidine] | 97.7 | 99.2 | 103 | 104 | 93.7 | 110 | 107 | 101 | 102 | 97.3 | 98 | 95.6 | 96.2 | 98.6 | 106 | 96.7 | 100 | 101 | 97.5 | 89.4 | > 10 | > 10 | > 10 | > 10 | 0 | 0 | 0 | 0 | 108 | 96.6 | 93.1 | 95.5 | 56.2 | 3 |
| CCOC(=O)c1cc(C#N)c(N2CCC(C(=O)NS(=O)(=O)Cc3ccccc3)CC2)nc1C [AZD1283] | 98.4 | 94.3 | 101 | 95.5 | 97 | 96.2 | 104 | 112 | 97.2 | 104 | 95.7 | 100 | 105 | 91.2 | 101 | 103 | 106 | 100 | 104 | 99.5 | > 10 | > 10 | > 10 | > 10 | 0 | 0 | 0 | 0 | – | – | – | – | – | – |
| CC1(C)NC(=O)N(c2ccc([N+](=O)[O-])c(C(F)(F)F)c2)C1=O [nilutamide] | 102 | 107 | 117 | 107 | 90.5 | 106 | 100 | 94.7 | 104 | 92.7 | 96 | 104 | 98.2 | 94.8 | 103 | 106 | 97.1 | 104 | 94.8 | 96.8 | > 10 | > 10 | > 10 | > 10 | 0 | 0 | 0 | 0 | – | – | – | – | – | – |
| CCn1c(=O)n([C@H]2CCCN(c3nccc(-c4cc5ccccc5o4)n3)C2)c2ccccc21 [TC-F-2] | 95.6 | 91.4 | 85.1 | 92 | 84.9 | 98.8 | 99.6 | 114 | 104 | 98.4 | 95.1 | 101 | 96.4 | 98.8 | 96.5 | 103 | 99.5 | 96.1 | 96.6 | 102 | > 10 | > 10 | > 10 | > 10 | 1.4 | 0 | 0 | 0 | 96 | 103 | 99.2 | 90.7 | 56.9 | 3.7 |
| COc1cc(C(=O)OCCCN2CCCN(CCCOC(=O)c3cc(OC)c(OC)c(OC)c3)CC2)cc(OC)c1OC [dilazep] | 91.6 | 98.3 | 97.1 | 97.1 | 73.6 | 112 | 102 | 93.9 | 103 | 88.1 | 98.9 | 101 | 99.6 | 103 | 84.6 | 98.5 | 97.3 | 100 | 88.6 | 79.1 | – | > 10 | > 10 | > 10 | 1.5 | 0 | 0.2 | 1.8 | 104 | 89.5 | 102 | 82.4 | 70.4 | 3.3 |
